{
  "source": "paper PMC9969250",
  "about": "(2023)",
  "key": {"[1]": {"system": "A (boxcar A) (DNA, aptamer) CGTCTAATCTAATCAGGCGACAAGGAAAATCCTTCAACGAAGTGGGTCGCCCTAACTCTCTATCCG", "test": "quinine fluorescence quenching", "conditions": "PBS, 5 mM MgCl2; pH 7.4, 20 °C; 0.1 μM quinine; three-parameter fit; per site"}, "[2]": {"system": "MN4 (DNA, aptamer) GGCGACAAGGAAAATCCTTCAACGAAGTGGGTCGCC", "test": "quinine fluorescence quenching", "conditions": "PBS, 5 mM MgCl2; pH 7.4, 20 °C; 0.1 μM quinine; three-parameter fit; per site"}},
  "data": [
    {"smiles": "C=C[C@H]1CN2CC[C@H]1C[C@H]2[C@H](O)c1ccnc2ccc(OC)cc12", "values": [
      {"measurement": "KD", "setting": "[1]", "result": "0.38 ± 0.13", "unit": "µM"},
      {"measurement": "KD", "setting": "[2]", "result": "0.28 ± 0.06", "unit": "µM"}
    ]}
  ]
}
